Measurements published in ChEMBL document CHEMBL1177794, “Broad spectrum alkynyl inhibitors of T315I Bcr-Abl” (Bioorg Med Chem Lett, 2010).

Tests used:
[1] = target: Receptor tyrosine-protein kinase erbB-2 (Homo sapiens) (UniProt P04626); test: Inhibition of ERBB2 at 10 uM; values are per cent of control
[2] = target: Eukaryotic translation initiation factor 2-alpha kinase 1 (Homo sapiens) (UniProt Q9BQI3); test: Inhibition of EIF2AK1 at 10 uM; conditions: values are per cent of control
[3] = target: Fibroblast growth factor receptor 1 (Homo sapiens) (UniProt P11362); test: Inhibition of FGFR1 at 10 uM; conditions: values are per cent of control
[4] = target: Serine/threonine-protein kinase PAK 1 (Homo sapiens) (UniProt Q13153); test: Inhibition of PAK1 at 10 uM
[5] = target: Serine/threonine-protein kinase N2 (Homo sapiens) (UniProt Q16513); test: Inhibition of PKN2 at 10 uM
[6] = target: Casein kinase I isoform alpha (Homo sapiens) (UniProt P48729); test: Inhibition of CSNK1A1 at 10 uM; values are per cent of control
[7] = target: Cyclin-dependent kinase 19 (Homo sapiens) (UniProt Q9BWU1); test: Inhibition of CDK11 at 10 uM; values are per cent of control
[8] = target: Receptor-interacting serine/threonine-protein kinase 4 (Homo sapiens) (UniProt P57078); test: Inhibition of RIPK4 at 10 uM
[9] = target: Serine/threonine-protein kinase 3 (Homo sapiens) (UniProt Q13188); test: Inhibition of MST2 at 10 uM
[10] = target: CDK4/Cyclin D3 (Homo sapiens) (UniProt P11802+P30281); test: Inhibition of CDK4/cyclin D3 at 10 uM; values are per cent of control
[11] = target: Epidermal growth factor receptor (Homo sapiens) (UniProt P04626+P00533+Q15303+P21860); test: Inhibition of EGFR L747-T751del, Sins mutant at 10 uM; values are per cent of control
[12] = tested on: Proto-oncogene tyrosine-protein kinase receptor Ret (Homo sapiens), P07949 [V804M]; test: Inhibition of RET V804M mutant at 10 uM; values are per cent of control
[13] = target: Serine/threonine-protein kinase MAK (Homo sapiens) (UniProt P20794); test: Inhibition of MAK at 10 uM; conditions: values are per cent of control
[14] = target: Dual specificity mitogen-activated protein kinase kinase 2 (Homo sapiens) (UniProt P36507); test: Inhibition of MEK2 at 10 uM; conditions: values are per cent of control
[15] = tested on: Tyrosine-protein kinase ABL1 (Homo sapiens), P00519 [F317L]; test: Inhibition of phosphorylated ABL1 F317L mutant at 10 uM; conditions: values are per cent of control
[16] = target: Serine/threonine-protein kinase PLK3 (Homo sapiens) (UniProt Q9H4B4); test: Inhibition of PLK3 at 10 uM
[17] = target: Receptor-interacting serine/threonine-protein kinase 2 (Homo sapiens) (UniProt O43353); test: Inhibition of RIPK2 at 10 uM; conditions: values are per cent of control
[18] = tested on: Proto-oncogene tyrosine-protein kinase receptor Ret (Homo sapiens), P07949 [M918T]; test: Inhibition of RET M918T mutant at 10 uM; values are per cent of control
[19] = target: Microtubule-associated serine/threonine-protein kinase 1 (Homo sapiens) (UniProt Q9Y2H9); test: Inhibition of MAST1 at 10 uM; conditions: values are per cent of control
[20] = target: Mitogen-activated protein kinase kinase kinase 5 (Homo sapiens) (UniProt Q99683); test: Inhibition of ASK1 at 10 uM; conditions: values are per cent of control
[21] = target: Tyrosine-protein kinase Fer (Homo sapiens) (UniProt P16591); test: Inhibition of FER at 10 uM; conditions: values are per cent of control
[22] = target: Tyrosine-protein kinase Lck (Homo sapiens) (UniProt P06239); test: Inhibition of LCK at 10 uM; values are per cent of control
[23] = target: Casein kinase I isoform delta (Homo sapiens) (UniProt P48730); test: Inhibition of CSNK1D at 10 uM; values are per cent of control
[24] = target: Non-receptor tyrosine-protein kinase TYK2 (Homo sapiens) (UniProt P29597); test: Inhibition of TYK2 JH1 catalytic domain at 10 uM; conditions: values are per cent of control
[25] = target: Homeodomain-interacting protein kinase 3 (Homo sapiens) (UniProt Q9H422); test: Inhibition of HIPK3 at 10 uM; conditions: values are per cent of control
[26] = target: Dual specificity testis-specific protein kinase 1 (Homo sapiens) (UniProt Q15569); test: Inhibition of TESK1 at 10 uM
[27] = target: Serine/threonine-protein kinase NLK (Homo sapiens) (UniProt Q9UBE8); test: Inhibition of NLK at 10 uM
[28] = target: Tyrosine-protein kinase Fyn (Homo sapiens) (UniProt P06241); test: Inhibition of FYN at 10 uM; values are per cent of control
[29] = target: Proto-oncogene tyrosine-protein kinase ROS (Homo sapiens) (UniProt P08922); test: Inhibition of ROS1 at 10 uM
[30] = target: Mitogen-activated protein kinase 9 (Homo sapiens) (UniProt P45984); test: Inhibition of JNK2 at 10 uM; values are per cent of control
[31] = target: Tyrosine-protein kinase receptor UFO (Homo sapiens) (UniProt P30530); test: Inhibition of AXL at 10 uM; conditions: values are per cent of control
[32] = target: Glycogen synthase kinase-3 alpha (Homo sapiens) (UniProt P49840); test: Inhibition of GSK3A at 10 uM; conditions: values are per cent of control
[33] = target: Serine/threonine-protein kinase MARK1 (Homo sapiens) (UniProt Q9P0L2); test: Inhibition of MARK1 at 10 uM; conditions: values are per cent of control
[34] = target: Transient receptor potential cation channel subfamily M member 6 (Homo sapiens) (UniProt Q9BX84); test: Inhibition of TRPM6 at 10 uM; conditions: values are per cent of control
[35] = target: Calcium/calmodulin-dependent protein kinase type 1G (Homo sapiens) (UniProt Q96NX5); test: Inhibition of CAMK1G at 10 uM; conditions: values are per cent of control
[36] = target: Serine/threonine-protein kinase Chk2 (Homo sapiens) (UniProt O96017); test: Inhibition of CHEK2 at 10 uM; values are per cent of control
[37] = target: Serine/threonine-protein kinase ULK3 (Homo sapiens) (UniProt Q6PHR2); test: Inhibition of ULK3 at 10 uM; conditions: values are per cent of control
[38] = target: Ribosomal protein S6 kinase alpha-4 (Homo sapiens) (UniProt O75676); test: Inhibition of RPS6KA4 C-terminal domain2 at 10 uM
[39] = target: Activin receptor type-2A (Homo sapiens) (UniProt P27037); test: Inhibition of ACVR2A at 10 uM; conditions: values are per cent of control
[40] = target: Cyclin-dependent kinase 18 (Homo sapiens) (UniProt Q07002); test: Inhibition of PCTK3 at 10 uM; conditions: values are per cent of control

Sequence of Tyrosine-protein kinase Fer (Homo sapiens) (P16591 whole entry, looked up): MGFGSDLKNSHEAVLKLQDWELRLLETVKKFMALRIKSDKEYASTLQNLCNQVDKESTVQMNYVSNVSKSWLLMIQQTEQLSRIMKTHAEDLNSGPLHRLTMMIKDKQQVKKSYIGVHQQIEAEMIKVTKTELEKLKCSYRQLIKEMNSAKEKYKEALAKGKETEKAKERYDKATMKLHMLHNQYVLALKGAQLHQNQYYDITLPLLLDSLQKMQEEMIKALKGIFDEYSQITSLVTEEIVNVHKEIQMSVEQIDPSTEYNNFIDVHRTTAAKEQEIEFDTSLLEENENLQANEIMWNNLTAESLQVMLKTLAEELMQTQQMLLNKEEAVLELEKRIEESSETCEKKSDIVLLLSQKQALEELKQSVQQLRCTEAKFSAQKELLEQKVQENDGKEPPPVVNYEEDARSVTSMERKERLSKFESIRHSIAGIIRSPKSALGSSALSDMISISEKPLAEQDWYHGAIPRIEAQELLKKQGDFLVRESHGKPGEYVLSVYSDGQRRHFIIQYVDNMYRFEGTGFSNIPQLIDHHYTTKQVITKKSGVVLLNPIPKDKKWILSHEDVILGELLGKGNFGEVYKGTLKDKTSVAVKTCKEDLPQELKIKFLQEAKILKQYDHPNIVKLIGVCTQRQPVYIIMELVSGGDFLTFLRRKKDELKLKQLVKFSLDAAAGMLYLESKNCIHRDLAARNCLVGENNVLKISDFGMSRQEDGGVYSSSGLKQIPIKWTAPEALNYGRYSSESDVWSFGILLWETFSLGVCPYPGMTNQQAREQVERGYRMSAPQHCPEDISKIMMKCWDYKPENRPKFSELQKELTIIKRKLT
Sequence of Casein kinase I isoform alpha (Homo sapiens) (P48729 2-337 limits assumed): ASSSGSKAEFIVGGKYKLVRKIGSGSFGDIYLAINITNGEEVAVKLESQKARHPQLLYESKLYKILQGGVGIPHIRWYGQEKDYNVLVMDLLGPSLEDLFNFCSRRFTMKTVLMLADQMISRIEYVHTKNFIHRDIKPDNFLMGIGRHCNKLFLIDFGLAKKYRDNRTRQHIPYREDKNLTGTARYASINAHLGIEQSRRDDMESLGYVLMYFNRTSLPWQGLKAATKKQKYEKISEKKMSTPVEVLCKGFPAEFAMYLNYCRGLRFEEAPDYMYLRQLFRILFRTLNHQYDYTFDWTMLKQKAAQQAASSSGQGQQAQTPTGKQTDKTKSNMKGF
Sequence of Tyrosine-protein kinase receptor UFO (Homo sapiens) (P30530 whole entry): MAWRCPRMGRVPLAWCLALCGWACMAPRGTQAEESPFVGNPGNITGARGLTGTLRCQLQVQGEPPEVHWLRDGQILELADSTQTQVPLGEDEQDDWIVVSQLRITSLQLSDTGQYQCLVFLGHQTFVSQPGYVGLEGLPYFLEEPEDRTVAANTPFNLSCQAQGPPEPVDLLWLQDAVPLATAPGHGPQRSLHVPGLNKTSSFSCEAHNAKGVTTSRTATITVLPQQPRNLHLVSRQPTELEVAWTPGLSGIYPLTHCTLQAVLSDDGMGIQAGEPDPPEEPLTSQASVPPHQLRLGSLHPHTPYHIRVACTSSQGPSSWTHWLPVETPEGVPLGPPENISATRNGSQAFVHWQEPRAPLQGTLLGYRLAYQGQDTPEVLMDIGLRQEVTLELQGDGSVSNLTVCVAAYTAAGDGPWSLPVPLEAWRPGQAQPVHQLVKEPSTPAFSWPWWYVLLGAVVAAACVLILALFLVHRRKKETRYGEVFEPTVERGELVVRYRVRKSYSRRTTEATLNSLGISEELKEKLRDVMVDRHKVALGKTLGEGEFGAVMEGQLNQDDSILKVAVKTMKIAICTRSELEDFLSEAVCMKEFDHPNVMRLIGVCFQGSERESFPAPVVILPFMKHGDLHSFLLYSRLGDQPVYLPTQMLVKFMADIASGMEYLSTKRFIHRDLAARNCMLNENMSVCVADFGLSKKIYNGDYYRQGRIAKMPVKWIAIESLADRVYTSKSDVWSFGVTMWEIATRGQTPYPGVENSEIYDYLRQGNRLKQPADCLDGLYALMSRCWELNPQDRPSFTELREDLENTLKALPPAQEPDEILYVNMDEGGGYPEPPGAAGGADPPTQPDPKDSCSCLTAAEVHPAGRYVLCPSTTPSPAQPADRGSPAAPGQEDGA
Sequence of Casein kinase I isoform delta (Homo sapiens) (P48730 whole entry, looked up, the tested form may be a part, canonical isoform): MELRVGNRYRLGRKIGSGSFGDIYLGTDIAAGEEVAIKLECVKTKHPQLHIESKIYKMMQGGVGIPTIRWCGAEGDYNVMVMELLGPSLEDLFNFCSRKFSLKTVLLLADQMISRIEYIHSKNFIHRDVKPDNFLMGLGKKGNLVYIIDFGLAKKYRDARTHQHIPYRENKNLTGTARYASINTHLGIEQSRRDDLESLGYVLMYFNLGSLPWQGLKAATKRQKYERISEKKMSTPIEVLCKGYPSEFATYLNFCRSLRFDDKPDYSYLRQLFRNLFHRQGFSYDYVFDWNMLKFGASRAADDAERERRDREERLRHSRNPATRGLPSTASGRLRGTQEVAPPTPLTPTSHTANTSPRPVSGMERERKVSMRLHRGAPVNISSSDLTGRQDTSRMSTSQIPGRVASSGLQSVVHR
Sequence of Mitogen-activated protein kinase kinase kinase 5 (Homo sapiens) (Q99683 whole entry): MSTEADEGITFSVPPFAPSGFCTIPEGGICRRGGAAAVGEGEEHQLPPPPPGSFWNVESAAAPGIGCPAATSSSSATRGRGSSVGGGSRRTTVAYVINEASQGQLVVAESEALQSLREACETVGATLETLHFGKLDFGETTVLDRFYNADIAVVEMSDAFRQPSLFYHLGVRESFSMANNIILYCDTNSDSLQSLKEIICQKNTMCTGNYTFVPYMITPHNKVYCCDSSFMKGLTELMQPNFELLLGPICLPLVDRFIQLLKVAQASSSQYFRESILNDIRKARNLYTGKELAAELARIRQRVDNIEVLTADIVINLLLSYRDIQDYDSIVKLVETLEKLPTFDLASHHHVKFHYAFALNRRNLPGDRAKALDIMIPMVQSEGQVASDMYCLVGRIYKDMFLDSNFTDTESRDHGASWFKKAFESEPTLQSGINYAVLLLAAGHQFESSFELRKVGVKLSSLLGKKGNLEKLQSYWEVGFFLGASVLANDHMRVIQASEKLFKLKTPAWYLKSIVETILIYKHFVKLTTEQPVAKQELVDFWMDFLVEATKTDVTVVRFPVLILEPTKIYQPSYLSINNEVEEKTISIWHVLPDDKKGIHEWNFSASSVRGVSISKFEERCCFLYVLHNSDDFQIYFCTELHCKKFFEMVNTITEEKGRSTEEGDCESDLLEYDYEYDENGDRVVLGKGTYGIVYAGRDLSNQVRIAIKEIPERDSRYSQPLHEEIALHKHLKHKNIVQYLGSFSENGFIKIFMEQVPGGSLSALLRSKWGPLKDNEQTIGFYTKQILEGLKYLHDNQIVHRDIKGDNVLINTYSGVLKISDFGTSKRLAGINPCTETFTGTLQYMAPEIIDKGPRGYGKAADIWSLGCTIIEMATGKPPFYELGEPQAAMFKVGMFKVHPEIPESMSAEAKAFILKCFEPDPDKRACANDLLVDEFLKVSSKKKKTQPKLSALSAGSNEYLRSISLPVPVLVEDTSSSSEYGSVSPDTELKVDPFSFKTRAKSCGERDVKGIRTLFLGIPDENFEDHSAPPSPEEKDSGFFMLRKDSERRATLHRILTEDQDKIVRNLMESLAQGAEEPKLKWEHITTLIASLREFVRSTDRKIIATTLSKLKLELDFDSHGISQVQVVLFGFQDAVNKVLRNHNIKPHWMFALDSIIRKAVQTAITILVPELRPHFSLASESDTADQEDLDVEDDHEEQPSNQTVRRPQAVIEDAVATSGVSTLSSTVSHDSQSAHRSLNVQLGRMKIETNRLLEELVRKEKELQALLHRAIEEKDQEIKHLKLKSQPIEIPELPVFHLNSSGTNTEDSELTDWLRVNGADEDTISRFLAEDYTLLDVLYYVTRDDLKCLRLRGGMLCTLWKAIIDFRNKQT
Sequence of Proto-oncogene tyrosine-protein kinase receptor Ret (Homo sapiens), P07949 [M918T] (P07949 whole entry M918T): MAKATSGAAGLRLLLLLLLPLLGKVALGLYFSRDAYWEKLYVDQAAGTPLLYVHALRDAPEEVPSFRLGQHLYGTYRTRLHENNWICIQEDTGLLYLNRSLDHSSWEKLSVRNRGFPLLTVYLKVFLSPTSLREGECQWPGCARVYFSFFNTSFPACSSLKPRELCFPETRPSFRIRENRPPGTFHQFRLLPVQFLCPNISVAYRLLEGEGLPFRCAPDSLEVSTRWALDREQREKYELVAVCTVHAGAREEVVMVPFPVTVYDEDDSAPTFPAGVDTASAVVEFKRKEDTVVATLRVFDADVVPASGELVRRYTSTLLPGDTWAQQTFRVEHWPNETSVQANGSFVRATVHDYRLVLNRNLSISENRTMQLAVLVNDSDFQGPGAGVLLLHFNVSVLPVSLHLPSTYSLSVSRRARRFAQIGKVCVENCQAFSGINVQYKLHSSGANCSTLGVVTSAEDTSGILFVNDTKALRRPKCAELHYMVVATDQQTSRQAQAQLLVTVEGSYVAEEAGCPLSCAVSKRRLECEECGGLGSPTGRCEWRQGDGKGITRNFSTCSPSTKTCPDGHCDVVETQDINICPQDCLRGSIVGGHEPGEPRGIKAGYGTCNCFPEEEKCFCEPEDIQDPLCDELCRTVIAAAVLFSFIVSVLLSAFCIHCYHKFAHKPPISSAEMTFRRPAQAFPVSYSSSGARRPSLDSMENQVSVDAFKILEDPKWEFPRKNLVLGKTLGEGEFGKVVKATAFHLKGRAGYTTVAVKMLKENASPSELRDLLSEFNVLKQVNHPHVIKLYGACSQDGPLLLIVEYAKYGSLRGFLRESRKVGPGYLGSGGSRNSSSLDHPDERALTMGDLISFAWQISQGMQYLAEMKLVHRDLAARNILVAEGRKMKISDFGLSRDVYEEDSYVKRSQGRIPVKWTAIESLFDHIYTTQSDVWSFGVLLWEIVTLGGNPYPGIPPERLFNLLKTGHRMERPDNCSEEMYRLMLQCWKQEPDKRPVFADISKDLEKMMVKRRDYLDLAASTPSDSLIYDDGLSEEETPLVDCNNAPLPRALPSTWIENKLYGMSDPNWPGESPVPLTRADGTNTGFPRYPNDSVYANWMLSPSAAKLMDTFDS
Sequence of Proto-oncogene tyrosine-protein kinase receptor Ret (Homo sapiens), P07949 [V804M] (P07949 whole entry V804M): as the sequence (P07949 whole entry M918T) above, with V804M, T918M counted along it

Row | SMILES | level, % of control [1] [%] | residual binding, % of control [2] [%] | residual binding, % of control [3] [%] | inhibition [4] [%] | inhibition [5] [%] | level, % of control [6] [%] | level, % of control [7] [%] | inhibition [8] [%] | inhibition [9] [%] | level, % of control [10] [%] | level, % of control [11] [%] | level, % of control [12] [%] | residual binding, % of control [13] [%] | residual binding, % of control [14] [%] | residual binding, % of control [15] [%] | inhibition [16] [%] | residual binding, % of control [17] [%] | level, % of control [18] [%] | residual binding, % of control [19] [%] | residual binding, % of control [20] [%] | other results
1 | CCN1CCN(Cc2ccc(NC(=O)c3ccc(C)c(C#Cc4cnc5[nH]ccc5c4)c3)cc2C(F)(F)F)CC1 | 0.3 | 72 | 0.15 | 62 | 2.2 | 89 | 4.2 | 8 | 26 | 65 | 0.4 | 0 | 61 | 37 | 0.85 | 92 | 0.3 | 0 | 100 | 24 | residual binding, % of control [21]: 2.6%; level, % of control [22]: 0.1%; level, % of control [23]: 22%; residual binding, % of control [24]: 6.8%; residual binding, % of control [25]: 25%; inhibition [26]: 2.4%; inhibition [27]: 13%; level, % of control [28]: 0.25%; inhibition [29]: 34%; level, % of control [30]: 0%; residual binding, % of control [31]: 0.1%; residual binding, % of control [32]: 100%; residual binding, % of control [33]: 100%; residual binding, % of control [34]: 64%; residual binding, % of control [35]: 92%; level, % of control [36]: 22%; residual binding, % of control [37]: 0.25%; inhibition [38]: 87%; residual binding, % of control [39]: 100%; residual binding, % of control [40]: 12%
2 | CCN1CCN(Cc2ccc(NC(=O)c3ccc(C)c(C#Cc4cccnc4)c3)cc2C(F)(F)F)CC1 | 0.5 | 83 | 0.25 | 81 | 36 | 75 | 5 | 48 | 53 | 54 | 0.45 | 0 | 9 | 64 | 0.85 | 90 | 0.45 | 0 | 100 | 100 | residual binding, % of control [21]: 11%; level, % of control [22]: 0.05%; level, % of control [23]: 29%; residual binding, % of control [24]: 4.2%; residual binding, % of control [25]: 18%; inhibition [26]: 60%; inhibition [27]: 8.2%; level, % of control [28]: 0.35%; inhibition [29]: 46%; level, % of control [30]: 0%; residual binding, % of control [31]: 2.9%; residual binding, % of control [32]: 100%; residual binding, % of control [33]: 83%; residual binding, % of control [34]: 49%; residual binding, % of control [35]: 100%; level, % of control [36]: 40%; residual binding, % of control [37]: 0.25%; inhibition [38]: 99%; residual binding, % of control [39]: 100%; residual binding, % of control [40]: 6.2%
